Data from patent US12622915B2, “Methods of treating PDE IV-mediated diseases or conditions” (Vanda Pharmaceuticals Inc., priority 2020, dated 2026).

Assays:
Phosphodiesterase PDE4B1 = biological target: T1, Phosphodiesterase PDE4B1 (Homo sapiens, UniProt Q07343); assay: Phosphodiesterase PDE4B1 enzyme assay; type: biochemical
T1 construct: host or cells: insect Sf9 cells
From the text: (§1) Reference standards are run as an integral part of each assay to ensure the validity of the results obtained. Reference Compounds: • Phosphodiesterase PDE10A2 Papaverine • Phosphodiesterase PDE11A4 Dipyridamole • Phosphodiesterase PDE1A MMPX • Phosphodiesterase PDE2A EHNA • Phosphodiesterase PDE3A Cilostamide • Phosphodiesterase PDE4A1A Rolipram • Phosphodiesterase PDE4B1 Rolipram • Phosphodiesterase PDE5A Zaprinast • Phosphodiesterase PDE6 Zaprinast • Phosphodiesterase PDE7A IBMX • Phosphodiesterase PDE7B IBMX • Phosphodiesterase PDE8A1 Dipyridamole • Phosphodiesterase PDE9A2 Zaprinast
PDE4 assays are performed using methods adapted from the literature. See Richter W, et al. (2001) Identification of inhibitor binding sites of the cAMP-specific phosphodiesterase 4. Cell Signal. 13(4): 287-297; Wang H, et al. (2005) Multiple elements jointly determine inhibitor selectivity of cyclic nucleotide phosphodiesterases 4 and 7. J Biol Chem. 280(35): 30949-30955.
(§2) Phosphodiesterase PDE4A1A; Phosphodiesterase PDE4B1; Phosphodiesterase PDE10A2; Phosphodiesterase PDE11A4; Phosphodiesterase PDE2A; Phosphodiesterase PDE3A; Phosphodiesterase PDE7A; Phosphodiesterase PDE7B; and Phosphodiesterase PDE8A1: • Source: Human recombinant insect Sf9 cells • Substrate: 0.10 μM FAM-cAMP • Vehicle: 1.00% DMSO • Significance Crit.: ≥50% of max stimulation or inhibition • Incubation Buffer: 10 mM Tris-HCl, pH 7.2, 10 mM MgCl2, 0.05% NaN3, 0.1% phosphate-free BSA • Quantitation Method: Quantitation of Fluorescein-AMP-IMAP • Pre-Incub. Time/Temp: 15 minutes @25° C. • Incubation Time/Temp: 30 minutes @25° C.
(§3) IC50 values are determined by a non-linear, least squares regression analysis using MathIQ™ (ID Business Solutions Ltd., UK). Where inhibition constants (Ki) are presented, the Ki values are calculated using the equation of Cheng and Prusoff (Cheng, Y., Prusoff, W. H., Biochem. Pharmacol. 22:3099-3108, 1973) using the observed IC50 of the tested compound, the concentration of radioligand employed in the assay, and the historical values for the KD of the ligand. Where presented, the Hill coefficient (nH), defining the slope of the competitive binding curve, is calculated using MathIQ™. […] Where IC50, Ki, and/or nH data are presented without Standard Error of the Mean (SEM), data are insufficient to be quantitative, and the values presented (Ki, IC50, nH) are interpreted with caution.
Reference standards are run as an integral part of each assay to ensure the validity of the results obtained. Rolipram is used for the PDE4 assays.
Phosphodiesterase PDE4B1: • Source: Human recombinant insect Sf9 cells • Substrate: 0.10 μM FAM-cAMP • Vehicle: 1.00% DMSO • Significance Crit.: ≥50% of max stimulation or inhibition • Incubation Buffer: 10 mM Tris-HCl, pH 7.2, 10 mM MgCl2, 0.05% NaN3, 0.1% phosphate-free BSA • Quantitation Method: Quantitation of Fluorescein-AMP-IMAP • Pre-Incub. Time/Temp: 15 minutes @25° C. • Incubation Time/Temp: 30 minutes @25° C.
as §3, with “W.H.,” for “W. H.,”

Phosphodiesterase PDE7A = biological target: T2, Phosphodiesterase PDE7A (Homo sapiens, UniProt Q13946); assay: Phosphodiesterase PDE7A enzyme assay; type: biochemical; settings: N=2, Example 3
T2 construct: host or cells: insect Sf9 cells
T2 sequence (Q13946 whole entry): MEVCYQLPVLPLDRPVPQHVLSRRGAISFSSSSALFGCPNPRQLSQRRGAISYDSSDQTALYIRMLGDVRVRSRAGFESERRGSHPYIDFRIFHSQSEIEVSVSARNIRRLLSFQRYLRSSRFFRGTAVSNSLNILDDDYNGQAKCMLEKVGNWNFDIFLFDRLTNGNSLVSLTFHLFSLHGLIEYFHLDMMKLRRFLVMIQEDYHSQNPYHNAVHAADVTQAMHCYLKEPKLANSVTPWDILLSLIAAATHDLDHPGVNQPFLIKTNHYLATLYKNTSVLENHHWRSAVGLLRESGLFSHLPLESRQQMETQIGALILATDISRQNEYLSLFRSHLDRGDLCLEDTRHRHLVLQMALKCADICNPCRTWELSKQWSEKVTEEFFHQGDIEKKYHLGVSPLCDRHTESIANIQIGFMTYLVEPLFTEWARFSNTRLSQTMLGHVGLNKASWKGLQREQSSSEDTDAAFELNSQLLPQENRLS
From the text: as §1, §2
IC50 values are determined by a non-linear, least squares regression analysis using MathIQ™ (ID Business Solutions Ltd., UK). […]

[1] = tested on: PMA-induced ear thickening and ear weight gain; assay: PMA-induced ear inflammation model (Example 1); type: in vivo, BALB/c; settings: 6 hours post PMA, topical 0.5% w/v on both ears 30 min before and 15 min after PMA
Protocol: Animals in group 2, 3, and 4 receive dexamethasone, Crisaborole and the compound of Formula (I), respectively (as a solution in acetone and ethanol by 1:1 ratio), 30 min before PMA challenge, on both ears.
• −24 hr—Randomization (body weight based) • −30 min—Treatment Topical • 0 min—Disease Induction PMA application • 15 min—Treatment Topical • 6 hr—Skin Thickness, Skin Collection (Cohort 1) • 24 hr—Skin Thickness, Skin Collection (Cohort 2)
5 μg/20 μl/right ear and 5 μg/20 μl/left ear (2.5 μg/10 μl in anterior and posterior surface of both ears)
Phorbol 12-myristate 13-acetate (PMA) is formulated in acetone at a concentration of 250 μg/ml. This working solution is applied topically to the anterior and posterior surface of both the ear (10 μl each side).
Ear thickness (both right and left ear): at −1 hr (before PMA challenge), 6 hr and 24 hrs post PMA challenge.
At 6 hr and 24 hrs, respective cohort of animals are euthanized, and ear tissues are collected. […] Left ears are collected and preserved in 10% NBF for Histopathology.

T1 sequence (Q07343 whole entry): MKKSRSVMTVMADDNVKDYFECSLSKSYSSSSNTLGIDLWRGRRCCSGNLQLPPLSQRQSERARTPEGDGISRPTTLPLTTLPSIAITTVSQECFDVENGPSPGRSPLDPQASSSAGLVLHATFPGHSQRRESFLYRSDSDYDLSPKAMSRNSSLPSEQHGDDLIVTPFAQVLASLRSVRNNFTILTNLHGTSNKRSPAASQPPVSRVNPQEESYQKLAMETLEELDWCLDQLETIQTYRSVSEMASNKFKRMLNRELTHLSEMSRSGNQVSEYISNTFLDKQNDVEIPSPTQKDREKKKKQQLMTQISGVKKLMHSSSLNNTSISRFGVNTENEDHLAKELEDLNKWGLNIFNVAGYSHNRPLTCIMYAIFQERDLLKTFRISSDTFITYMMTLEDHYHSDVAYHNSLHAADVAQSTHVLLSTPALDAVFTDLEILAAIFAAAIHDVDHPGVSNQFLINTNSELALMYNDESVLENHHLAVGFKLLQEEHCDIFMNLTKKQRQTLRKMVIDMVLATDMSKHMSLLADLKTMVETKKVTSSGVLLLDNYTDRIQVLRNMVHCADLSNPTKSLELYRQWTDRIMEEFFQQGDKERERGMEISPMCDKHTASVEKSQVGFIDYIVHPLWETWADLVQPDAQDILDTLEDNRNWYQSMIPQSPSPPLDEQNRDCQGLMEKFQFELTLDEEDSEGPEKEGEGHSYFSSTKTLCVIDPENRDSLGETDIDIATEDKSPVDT

Structure (SMILES): CNc1nc(Nc2ccccc2)nc(OCC(F)(F)C(F)F)n1 [compound of Formula (I), N^2-methyl-N^4-phenyl-6-(2,2,3,3-tetrafluoropropoxy)-1,3,5-triazine-2,4-diamine]
- inhibition at 0.01 µM (Phosphodiesterase PDE4B1; 10 nM, N=2, Example 4): 17%
- inhibition at 0.03 µM (Phosphodiesterase PDE4B1; 0.03 μM, N=2, Example 4): 34%
- inhibition at 0.1 µM (Phosphodiesterase PDE4B1; 0.1 μM, N=2, Example 4): 49%
- inhibition at 0.3 µM (Phosphodiesterase PDE4B1; 0.3 μM, N=2, Example 4): 70%
- inhibition at 1 µM (Phosphodiesterase PDE4B1; 1 μM, N=2, Example 4): 83%
- inhibition at 3 µM (Phosphodiesterase PDE4B1; 3 μM, N=2, Example 4): 91%
- inhibition at 10 µM (Phosphodiesterase PDE4B1; N=2, Example 3): 96%
- inhibition at 10 µM (Phosphodiesterase PDE4B1; N=2, Example 4): 94%
- IC50 (Phosphodiesterase PDE4B1; Example 4): 94 nM
- inhibition at 10 µM (Phosphodiesterase PDE7A): 7%
- PMA-induced ear thickening [1]: prevents or reduces
- PMA-induced ear weight gain [1]: prevents or reduces
